From patent publication US7538222B2, “N-substituted piperidine derivatives as serotonin receptor agents” (ACADIA Pharmaceuticals, Inc., priority 2002, dated 2009) come the findings set out here.

SMILES strings stand for the structures.

The test system of this assay is Male NSA mice. As to the kind of experiment: In vivo determination of behavioral effects (motor activity / MK-801 hyperactivity), minimum effective dose. The conditions noted are these: p.o., lowest dose significantly different from vehicle control (distance traveled). The method, then: Animals and Apparatus. Male NSA mice (Harlan; San Deigo, Calif.) were used as subjects. Mice weighed 20-30 g. Animals were housed 8/cage in the One Cage system (One Cage; Lab Products, Inc., Seaford, Del.) with bedding (⅛ inch Bed “O” Cob; Harlan Teklad, Madison, Wis.) in a room with controlled temperature 22±3° C. and a 12 hour light:dark cycle (lights on 6 am). Water and standard rodent chow (Harlan Teklad) were continuously available in the home cage. For testing, plastic locomotor activity cages (20×20×30 cm; AccuScan Instruments, Columbus, Ohio) were equipped with photocell beams for monitoring horizontal activity. Data were collected using Versamax computer software (AccuScan Instruments).
For determination of spontaneous activity, test compounds were administered alone (s.c. 10 min or p.o. 30 min before the session). For hyperactivity experiments, mice were injected with 0.3 mg/kg MK-801 i.p. 15 min presession (the peak dose for producing hyperactivity in an inverted-U dose-effect curve as determined in pilot experiments) in combination with vehicle or test compound. Motor activity data were collected during a 15 min session in a lit room. Mice had no prior exposure to the motor cages. Each dose or dose combination was tested in a separate group of mice (n=8).
Distance traveled (cm) was calculated and averaged across animals in a group. […]

On to `CC(C)COc1ccc(CC(=O)N(Cc2ccc(F)cc2)C2CCN(CCCN3C(=O)OC[C@@H]3C(C)C)CC2)cc1.O=C(O)C(=O)O` [117NLS01, N-(4-Fluorobenzyl)-2-(4-isobutoxyphenyl)-N-{1-[3-(4-(S)-isopropyl-2-oxo-oxazolidin-3-yl)propyl]piperidin-4-yl}acetamide], for which the “MED in vivo po” value is 1 mg/kg.
